Measured values reported in US5856506A, “Phosphatase inhibitors and methods of use thereof” (University of Pittsburgh, priority 1997, dated 1999).
Where two headings read alike, the source gives them in different places.

Assays:
[1] = system: human MDA-MB-231 breast cancer cells; test: Antiproliferative activity, tetrazolium reduction assay (Lazo method), 72 h; format: cell-based; settings: MDA-MB-231, 72 h
Description: The ability of the compounds of the present invention to inhibit proliferation can be assessed by methods known to those of ordinary skill in the art. For example, proliferating cells can be contacted with a compound of the invention, and cell numbers determined. A reduction in cell number in treated versus untreated cells provides a measure of the ability of the present compounds to inhibit proliferation. In a preferred embodiment the cells to be treated are cancer cells, for example breast cancer cells such as the CDC25B+ breast cancer cells MDA-MB-231, which are available from the American Type Culture Collection (Accession No. HTB-26). The antiproliferative activity of the present compounds can also be measured by the assay described by Lazo et al. (1995) J. Biol. Chem. 270: 5506, the disclosure of which is incorporated herein by reference. The microtiter-based calorimetric assay is based upon the reduction of 3-[4,5-dimethylthiazol-2-yl]-2,5-diphenyl tetrazolium bromide by living cells, and permits evaluation of the cytostatic or cytotoxic actions of large numbers of compounds quickly in mouse embryonic fibroblasts and human CDC25B+ breast cancer cells. Briefly, exponentially growing CDC25B+ MDA-MB-231 cells are treated continuously with from 0 to 100 μM of a compound of the invention, and cell proliferation is determined calorimetrically after 72 hours by assessing the ability of the cells to reduce 3-[4,5-dimethylthiazol-2-yl]-2,5-diphenyl tetrazolium bromide.
Human MDA-MB-231 breast carcinoma cells were obtained from the American Type Culture Collection at passage 28 and were maintained for no longer than 20 passages. The cells were grown in RPMI-1640 supplemented with 1% penicillin (100 μg/mL) and streptomycin (100 μg/mL), 1% L-glutamate,and 10% fetal bovine serum in a humidified incubator at 37° C. under 5% CO2 in air. Cells were routinely found free of mycoplasma. To remove cells from the monolayer for passage or flow cytometry, cells were washed two times with phosphate buffer and briefly (<3 min) treated with 0.05% trypsin/2 mM EDTA at room temperature. After the addition of at least two volumes of growth medium containing 10W fetal bovine serum, the cells were centrifuged at 1,000×g for 5 min. Compounds were made into stock solutions using DMSO, and stored at -20° C. All compounds and controls were added to obtain a final concentration of 0.1-0.2% (v/v) of the final solution for experiments.
The antiproliferative activity of the compounds was determined by the method of Lazo et al. (1995) J. Biol. Chem. 270:5506. Briefly, cells (6.5×10^3 cells/cm^2) were plated in 96 well flat bottom plates for the cytotoxicity studies and incubated at 37° C. for 48 h. The plating medium was aspirated off 96 well plates and 200 μL of growth medium containing the compound was added per well. Compounds were used at from O to the highest available concentration which ranged from 30 to 100 μM. Plates were incubated for 72 h, and then washed 4× with serum free medium. After washing, 50 μL of 3-[4,5-dimethylthiazol-2-yl]-2,5-diphenyl tetrazolium bromide solution (2 mg/mL) was added to each well, followed by 150 μL of complete growth medium. Plates were then incubated an additional 4 h at 37° C. The solution was aspirated off, 200 μL of DMSO added, and the plates were shaken for 30 min at room temperature. Absorbance at 540 nm was determined with a Titertek Multiskan Plus plate reader. Biologically active compounds were tested at least 3 independent times.

Recombinant human CDC25B = test: CDC25B phosphatase assay, GST fusion protein, fluorescein diphosphate; format: biochemical; settings: none = 100; 1 hour preincubation; concentration not given (0.3-100 μM tested)
Experimental: The compounds of the present invention are also capable of inhibiting dual specificity phosphatases, for example CDC25A and CDC25B. Phosphatases CDC25A and CDC25B are disclosed in U.S. Pat. No. 5,441,880. Inhibition of dual specificity phosphatases is defined herein as inhibition of the activity of CDC25A and/or CDC25B at a concentration of 100 μM of the inhibitor compound. In a preferred embodiment, the activity of the phosphatase is inhibited by at least 10%. In more preferred embodiments, the activity of the phophatase is inhibited by at least 25%, or even more preferably, by at least 50%. The ability of the compounds of the present invention to inhibit the phosphatases can be determined by measuring the effect of the compounds on the ability of CDC25 or CDC25B to dephosphorylate a substrate. Appropriate methods are known to those of ordinary skill in the art, and include, for example, calorimetric assays. A suitable assay is described in U.S. Pat. No. 5,441,880, the disclosure of which is incorporated herein by reference. […] The assay may be performed as a rapid calorimetric microtitration plate assay.
Compounds 1a-1r were assessed for ability to inhibit CDC25A and CDC25B activity. Recombinant human CDC25A and CDC25B were obtained as a glutahione-S-transferase (GST) fusion protein using human cDNA and standard molecular biological methods. The cDNA constructs are in a plasmid that is expressed in E. coli under the control of isopropyl-beta-D-[…] (IPTG). The bacterial pellet was disrupted by sonication, and centrifuged at 10,000×g. Using glutathione-agarose beads, the fusion protein was purified from postmicrosomal supernant fraction as described by Baratte et al. (1992) Anticancer Res. 12: 873-880. Phosphatase activity was assayed with a spectrofluorimeter under the following conditions: 1 unit (1 U=amount of protein that induces 33 fluoresence units/minute of product) of fusion protein in a final incubation mixture (150 μL) comprised of 25 mM Tris (pH=8.0), 5 mM EDTA, 33 μg/ml BSA, and 20 μM fluorescein diphosphate in 96-well microtiter plates. Plates were preincubated for 1 hour with 0 (control), 0.3, 1, 3, 10, 30, 100 μM compounds at room temperature. After the 1 hour incubation at room temperature, fluorescence of the fluorescein product (Ex. 485 nm; Em. 530 nm) were measured with a Biosystems Cytofluor II (Framingham, Mass.).

PP3 [2] = test: Phosphatase activity by [32P] release from phosphorylase-a or phosphohistone (Honkanen method); format: biochemical; settings: 100 μM inhibitor; none = 100
Experimental: (§1) It has been found in accordance with the present invention that compounds of formula I are capable of inhibiting serine/threonine protein phosphatases. Inhibition of serine/threonine protein phosphatases is defined herein as inhibition of the activity of one or more of PP1, PP2A or PP3 at a concentration of 100 μM or less of the inhibitor compound. In a preferred embodiment, the activity of the phosphatase is inhibited by at least 10%. In more preferred embodiments, the activity of the phophatase is inhibited by at least 25%, or even more preferably, by at least 50%. Inhibition of PP1, PP2A or PP3 can be assessed by methods known to one of ordinary skill in the art. Suitable assays are described, for example by Honkanen et al. (1994) Toxicon 32:339 and Honkanen et al. (1990) J. Biol. Chem. 265: 19401, the disclosures of which are incorporated herein by reference. Briefly, phosphatase activity is determined by quantifying the [^32 p] released from a ^32 p-labeled substrate such as phosphohistone or phosphorylase-a. Decreased [^32 p] release in the presence of the compounds of the present invention relative to control samples provides a measure of the ability of the compounds of the invention to inhibit PP1, PP2A or PP3.
(§2) Phosphatase activity and the inhibitory activity of the compounds of Table 1 were determined by the method of Honkanen et al. (1994) Toxicon 32:339. Briefly, phosphatase activity against phosphorylase-a or phosphohistone was 25 determined by the quantification of liberated [^32 p]. Assays, 80 μl total volume, containing 50 mM Tris-HCl, pH 7.4, 0.5 mM DTT, 1 mM EDTA (assay buffer) and [^32 p]phosphoprotein (1-2 μM PO4), were conducted as described previously (Honkanen et al., 1991 Mol. Pharmac. 40:577). Dephosphorylation reactions were routinely conducted for 5-10 min. using phosphorylase-a as a substrate and for 10-20 min. using phosphohistone. In all assays the dephosphorylation of substrate was kept to less than 10% of the total phosphorylated substrate available, and the reactions were adjusted to ensure that enzyme activity was linear with respect to enzyme concentration and time. [^32 p]Phosphate liberated by the enzymes was extracted as a phosphomolybdate complex and measured according to the methods of Killilea et al. (1978) Arch. Biochem. Biophys. 191:638. Inhibition of protein phosphatase activity by inhibitors was determined by adding the 100 μM of inhibitors to the enzyme mixture 5-10 min. prior to initiating the reaction with the addition of substrate.

PP2A [3] = molecular target: PP2A (Bos taurus, UniProt P67774); test: as above; format: biochemical; settings: 100 μM inhibitor; none = 100; read-out: PP2A, percent inhibition relative to control (100%)
Sequence of PP2A (Bos taurus, UniProt P67774) (P67774 whole entry): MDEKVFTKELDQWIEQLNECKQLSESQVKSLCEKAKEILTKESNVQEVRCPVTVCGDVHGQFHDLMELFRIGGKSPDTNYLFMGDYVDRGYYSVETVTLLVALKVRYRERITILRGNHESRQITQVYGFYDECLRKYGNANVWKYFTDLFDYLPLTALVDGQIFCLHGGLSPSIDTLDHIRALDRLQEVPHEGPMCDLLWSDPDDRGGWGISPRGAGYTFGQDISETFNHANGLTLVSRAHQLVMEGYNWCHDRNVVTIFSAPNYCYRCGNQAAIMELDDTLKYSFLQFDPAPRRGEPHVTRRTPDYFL
Experimental: as §1, §2

PP1 [4] = test: as above; format: biochemical; settings: 100 μM inhibitor; none = 100
Experimental: as §1, §2

PP2A [5] = molecular target: PP2A (Homo sapiens, UniProt P67775); settings: background, literature, cited from earlier work
Sequence of PP2A (Homo sapiens, UniProt P67775) (P67775 whole entry): as the sequence (P67774 whole entry) above

PP1 [6] = settings: cited from earlier work
PP3 [7] = settings: background, literature; cited from earlier work
[8] = molecular target: T1, catalytic subunit of bovine cardiac muscle PP2A (Bos taurus, UniProt P67774); test: PP2A activity with fluorescein diphosphate substrate in 96-well plates; format: biochemical; settings: FIG. 6
T1 construct: purchased Gibco-BRL, Gaithersburg, Md; host or cells: bovine cardiac muscle
T1 sequence (P67774 whole entry): as above
Experimental: FIG. 6 is a graph of inhibition of PP2A activity by compound 1d. The catalytic subunit of PP2A was incubated with vehicle alone (control), calyculin A (10 nM) or compound 1d (100 uM), and the dephosphorylation of the substrate fluorescein diphosphate determined spectro-photometrically. Mean results of two independent experiments are shown; bars indicate the range.
In another suitable assay, the ability of the compounds of the present invention to inhibit the activity of protein phosphatase PP2A is assessed. The activity of the catalytic subunit of bovine cardiac muscle PP2A (Gibco-BRL, Gaithersburg, Md.) is measured in 96-well microtiter plates using the substrate fluorescein diphosphate as follows. […] Fluorescence emission from the product is measured spectrofluorometrically, for example with Perseptive Biosystems Cytofluor II (Framingham, Mass.) (excitation filter, 485 nm; emission filter, 530 nm). The rate of increase in absorbance due to formation of dephosphorylated substrate is proportional to phosphatase activity. Thus, decreased absorbance relative to control samples provides a measure of the ability of the present compounds to inhibit the phosphatase.
The activity of the catalytic subunit of bovine cardiac muscle PP2A (Gibco-BRL, Gaithersburg, Md.) was measured with fluorescein diphosphate (Molecular Probes, Inc., Eugene, Oreg.) as a substrate in 96-well microtiter plates. […]

[9] = somewhat selective but weak inhibitors

Molecule: CCCCCCN(CCNC(=O)c1nc(-c2ccccc2)oc1C)C(=O)CCC(NC(=O)CCc1ccccc1)C(=O)O (stereo not drawn) [Compound 1h]
- IC50 ([1]; Homo sapiens, MDA-MB-231, 72 h continuous treatment, read-out: concentration causing 50% growth inhibition): 20000 nM
- concentration dependence of growth inhibition (in words) [1]: no further cytotoxicity at higher drug concentrations
- CDC25B activity remaining, percent of control (Recombinant human CDC25B): 69%
- PP3 remaining activity, percent of control (PP3 [2]): 17%
- PP2A remaining activity, % of control at 100 µM (PP2A [3]): 88%
- PP1 remaining activity, percent of control (PP1 [4]): 63%

Molecule: C[C@@]12C(=O)OC(=O)[C@]1(C)[C@H]1CC[C@@H]2O1 [cantharidine]
- IC50 (PP2A [5]; [9]): 160 to 10000 nM

Molecule: CO[C@H]([C@H](O)CC(=O)[C@@H](C)[C@@H](O)CC[C@@H](C)[C@@H]1O[C@]2(CC[C@@H](C)[C@H](CC[C@H](C)C(C)=O)O2)CC[C@@H]1C)[C@H](OC(=O)C[C@@H](O)C1=C(C)C(=O)OC1=O)C(C)C [Tautomycin]
- IC50 (PP1 [6]; background, literature): ~15 nM
- IC50 (PP2A [5]): ~15 nM
- IC50 (PP3 [7]): ~15 nM

Molecule: COC[C@@H]([C@H](O)[C@H](O)C(=O)NCC[C@H](C)c1nc(/C=C/C[C@@H]2O[C@]3(C[C@@H](O)[C@@H]2C)O[C@H]([C@H](C[C@H](O)[C@H](C)[C@H](O)[C@H](C)/C=C(C)/C(C)=C/C=C/C(C)=C\C#N)OC)[C@H](OP(=O)(O)O)C3(C)C)co1)N(C)C [calyculin A]
- IC50 (PP1 [6]; background, literature): ~0.3 nM
- IC50 (PP2A [5]): ~0.3 nM
- IC50 (PP3 [7]): ~0.3 nM
- inhibition of PP2A activity (in words) ([8]; 10 nM): inhibited PP2A activity

Molecule: thyrsiferal-23-acetate
- IC50 (PP2A [5]; [9]): 160 to 10000 nM

Molecule: C/C=C1/C(=O)N[C@@H](C(=O)O)[C@H](C)C(=O)N[C@@H](C(C)C)C(=O)N[C@@H](/C=C/C(C)=C/[C@H](C)[C@H](Cc2ccccc2)OC)[C@H](C)C(=O)N[C@@H](C(=O)O)CCC(=O)N1C [Motuporin]
- IC50 (PP1 [6]): < 1 nM

Molecule: CCCCCCCCCC(=O)NC(CCC(=O)N(C)CCNC(=O)c1nc(-c2ccccc2)oc1-c1ccccc1)C(=O)O (stereo not drawn) [Compound 1d]
- CDC25B activity remaining, percent of control (Recombinant human CDC25B): 91%
- PP3 remaining activity, percent of control (PP3 [2]): 33%
- PP2A remaining activity, % of control at 100 µM (PP2A [3]): 69%
- PP1 remaining activity, percent of control (PP1 [4]): 53%
- inhibition at 100 µM ([8]; 100 μM): 50%
